Measurements as given in patent publication US12268683B2, “Compounds and methods for synergistic activation of M channels” (THE REGENTS OF THE UNIVERSITY OF CALIFORNIA, priority 2018, dated 2025).

Tests used:
KCNQ2-W236L/KCNQ3-W265L = KCNQ2-W236L/KCNQ3-W265L (Homo sapiens, UniProt O43525+O43526, W236L/W265L); experiment: TEVC of double-mutant WL/WL KCNQ2/3 channels; assay type: cell-based
Source text: (§1) cRNA transcripts encoding human KCNA1, KCNQ1, KCNQ2, KCNQ3, KCNQ4, or KCNQ5 were generated by in vitro transcription using the T7 polymerase message machine kit (Thermo Fisher Scientific), after vector linearization, from cDNA sub-cloned into plasmids incorporating X. laevis β-globin 5′ and 3′ UTRs flanking the coding region to enhance translation and cRNA stability. cRNA was quantified by spectrophotometry. Mutant cDNAs were generated by site-directed mutagenesis using a QuikChange kit according to manufacturer's protocol (Stratagene, San Diego, Calif.) and corresponding cRNAs prepared as above. Defolliculated stage V and VI X. laevis oocytes (Ecocyte Bioscience, Austin, Tex.) were injected with Kv channel a subunit cRNAs (10 ng total per oocyte). Oocytes were incubated at 16° C. in Barth's saline solution (Ecocyte) containing penicillin and streptomycin, with daily washing, for 3-5 days prior to two-electrode voltage-clamp (TEVC) recording.
(§2) TEVC recording was performed at room temperature with an OC-725C amplifier (Warner Instruments, Hamden, Conn.) and pClamp10.2 software (Molecular Devices, Sunnyvale, Calif.) 3-5 days after cRNA injection as described in the section above. Oocytes were placed in a small-volume oocyte bath (Warner) and viewed with a dissection microscope. Chemicals were sourced from Sigma. Bath solution was (in mM): 96 NaCl, 4 KCl, 1 MgCl2, 1 CaCl2. 10 HEPES (pH 7.6). […] Currents were recorded in response to pulses between −80 and +40 mV at 20 mV intervals, or a single pulse to +40 mV, from a holding potential of −80 mV, to yield current-voltage relationships, current magnitude, and for quantifying activation rate. […]
cRNA transcripts encoding human KCNQ2, KCNQ3, KCNQ4, KCNQ5 (Kv7.2-Kv7.5) were generated by in vitro transcription using the T7 polymerase mMessage mMachine kit (Thermo Fisher Scientific), after vector linearization, from cDNA sub-cloned into plasmids incorporating Xenopus laevis β-globin 5′ and 3′ UTRs flanking the coding region to enhance translation and cRNA stability. cRNA was quantified by spectrophotometry. […]

KCNA1 = KCNA1 (Homo sapiens, UniProt Q09470); experiment: TEVC of KCNA1 expressed in Xenopus oocytes; assay type: cell-based
Source text: as §1, with “Oocytes were incubated at 16° C. in Barth's saline solution (Ecocyte) containing penicillin and streptomycin, with daily washing, for 3-5 days prior to two-electrode voltage-clamp (TEVC) recording.” left out
as §2, with “above.” for “above. Oocytes were placed in a small-volume oocyte bath (Warner) and viewed with a dissection microscope. Chemicals were sourced from Sigma. Bath solution was (in mM): 96 NaCl, 4 KCl, 1 MgCl2, 1 CaCl2. 10 HEPES (pH 7.6).”

Chain of KCNA1 (Q09470 whole entry): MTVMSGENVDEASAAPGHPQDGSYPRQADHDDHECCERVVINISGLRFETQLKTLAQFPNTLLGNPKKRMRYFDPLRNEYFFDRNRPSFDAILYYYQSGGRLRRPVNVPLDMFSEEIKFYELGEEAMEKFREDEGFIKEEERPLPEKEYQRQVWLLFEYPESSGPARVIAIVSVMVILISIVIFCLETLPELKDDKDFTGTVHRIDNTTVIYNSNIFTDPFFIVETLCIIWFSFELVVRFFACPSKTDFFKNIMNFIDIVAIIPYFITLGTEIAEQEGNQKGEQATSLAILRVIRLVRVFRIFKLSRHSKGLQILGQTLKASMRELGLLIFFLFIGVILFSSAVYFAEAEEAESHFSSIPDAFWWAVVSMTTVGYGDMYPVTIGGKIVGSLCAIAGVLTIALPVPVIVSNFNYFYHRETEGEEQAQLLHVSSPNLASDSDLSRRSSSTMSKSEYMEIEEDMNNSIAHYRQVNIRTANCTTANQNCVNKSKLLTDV

SMILES	augmentation of WL/WL KCNQ2/3 current (KCNQ2-W236L/KCNQ3-W265L) [%]	effect on KCNA1 (in words) (KCNA1)	reduction of MTX potency (negative shift in voltage dependence) by W/L mutation (KCNQ2-W236L/KCNQ3-W265L; KCNQ2-W236L or KCNQ3-W265L, or both)
NCC1(CC(=O)O)CCCCC1 [gabapentin, reference compound]	≤ 50		
CC(=O)c1c(O)c(C)c(O)c(Cc2c(O)c3c(c(C(=O)/C=C/c4ccccc4)c2O)OC(C)(C)C=C3)c1O [MTX, mallotoxin]		no effect	tenfold
